Read-outs that look alike come from different tables or passages of the source.
Experiments:
PKG = PKG (Plasmodium falciparum, UniProt Q8I719); assay: PKG IC50 (supplementary data file); type: biochemical
From the text: Supplement pone.0149996.s003.xls, sheet "combined_1_sorted"

P. falciparum 3D7 cells = details: 3D7, cited from earlier work
[1] = target: T1, Plasmodium falciparum calcium-dependent protein kinase 1 (CDPK1) (Plasmodium falciparum, UniProt P62344); assay: CDPK1 Kinase-Glo ATP-consumption screen and dose-response; type: biochemical; details: hits below 1 uM; read-out: CDPK1 IC50
T1 construct: 6-Histidine (N); made in house
T1 sequence (P62344 whole entry): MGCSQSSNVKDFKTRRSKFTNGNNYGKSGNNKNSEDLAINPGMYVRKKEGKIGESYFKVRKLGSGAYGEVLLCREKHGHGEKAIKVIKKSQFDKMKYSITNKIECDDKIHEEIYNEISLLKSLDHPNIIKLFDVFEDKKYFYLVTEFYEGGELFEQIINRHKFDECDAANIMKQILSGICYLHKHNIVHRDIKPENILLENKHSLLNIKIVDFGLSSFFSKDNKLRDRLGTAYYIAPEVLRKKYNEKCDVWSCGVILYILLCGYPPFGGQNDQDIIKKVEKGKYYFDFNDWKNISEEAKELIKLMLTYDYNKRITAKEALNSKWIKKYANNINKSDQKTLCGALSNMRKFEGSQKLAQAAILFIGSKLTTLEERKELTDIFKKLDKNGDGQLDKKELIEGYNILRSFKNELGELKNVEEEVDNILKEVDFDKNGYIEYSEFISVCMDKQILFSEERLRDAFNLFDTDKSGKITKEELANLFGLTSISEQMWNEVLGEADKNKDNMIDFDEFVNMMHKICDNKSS
Method in brief: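 ATP consumption by recombinant P. falciparum CDPK4 or CDPK1 measured as residual ATP by Kinase-Glo luminescence, with 40 μM Syntide-2 substrate and 90 min incubation stopped with 5 mM EGTA. Single-point screen at 1 μM final, followed by dose-response; no-substrate wells as negative control.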

3D7 PFLDH [2] = tested on: 3D7 PFLDH; set-up: method as in downloaded from ChEMBL; details: ref downloaded from ChEMBL; cited from earlier work
HepG2 cells = details: cited from earlier work
DD2 [3] = tested on: DD2; set-up: method as in downloaded from ChEMBL; details: ref downloaded from ChEMBL; cited from earlier work
[4] = target: T2, Plasmodium falciparum calcium-dependent protein kinase 4 (CDPK4) (Plasmodium falciparum, UniProt Q8IBS5); assay: CDPK4 Kinase-Glo ATP-consumption screen and dose-response; type: biochemical; details: hits below 1 uM
T2 construct: 6-Histidine (N); made in house
T2 sequence (Q8IBS5 1-528): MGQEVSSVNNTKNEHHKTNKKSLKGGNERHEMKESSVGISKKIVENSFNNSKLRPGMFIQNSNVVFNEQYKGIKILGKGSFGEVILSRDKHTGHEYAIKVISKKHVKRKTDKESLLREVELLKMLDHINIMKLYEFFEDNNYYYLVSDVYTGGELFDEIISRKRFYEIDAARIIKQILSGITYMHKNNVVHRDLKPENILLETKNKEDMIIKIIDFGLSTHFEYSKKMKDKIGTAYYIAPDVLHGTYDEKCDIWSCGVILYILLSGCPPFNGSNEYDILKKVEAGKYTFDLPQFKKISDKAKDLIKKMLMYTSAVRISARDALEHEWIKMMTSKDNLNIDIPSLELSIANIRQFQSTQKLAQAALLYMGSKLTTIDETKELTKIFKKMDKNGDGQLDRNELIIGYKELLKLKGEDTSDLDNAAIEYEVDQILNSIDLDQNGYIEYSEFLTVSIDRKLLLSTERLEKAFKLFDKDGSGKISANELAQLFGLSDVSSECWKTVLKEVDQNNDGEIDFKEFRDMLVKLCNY
Method: Biochemical assays were performed in white 384-well plates (Nunc). Liquid transfers were done manually with 8-channel pipets. Compounds were initially tested in a single-point screen (final concentration 1 μM). […] The catalytic activity of each kinase was considered proportional to ATP consumed, as determined from measurements of residual [ATP] with the luciferase-based reagent Kinase-Glo (Promega) following incubation. Luminescence (proportional to residual [ATP]) was measured on the plate readers FLx800 (BioTek Instruments, Winooski, VT, USA) and MicroBeta^2 (PerkinElmer, Waltham, MA, USA). Incubation times were chosen to ensure near-complete ATP depletion in the absence of inhibition, thus maximizing the difference in signal between inhibited and uninhibited wells.
40 μM Syntide-2 was used as a substrate; BKI-1 [14] was used as a control inhibitor, while reaction mixtures lacking Syntide-2 were included as an additional negative control. Incubation time was 90 minutes. Reactions were terminated by adding excess EGTA (5 mM), which sequesters Ca^2+ and halts calcium-dependent kinase activity.

3D7 PFLDH [5] = tested on: 3D7 PFLDH; set-up: method as in F.J. Gamo et al., Nature 2010; concentration or dose not given beside the values; details: downloaded from ChEMBL, ref F.J. Gamo et al., Nature 2010; cited from earlier work
DD2 [6] = tested on: DD2; set-up: method as in F.J. Gamo et al., Nature 2010; details: downloaded from ChEMBL, ref F.J. Gamo et al., Nature 2010; cited from earlier work
[7] = target: T3, Plasmodium falciparum protein kinase 6 (PK6) (Plasmodium falciparum, UniProt Q8IDW1); assay: biochemical; details: hits below 1 uM; read-out: PK6 IC50
T3 construct: 6-Histidine (N); made in house
T3 sequence (Q8IDW1 1-305): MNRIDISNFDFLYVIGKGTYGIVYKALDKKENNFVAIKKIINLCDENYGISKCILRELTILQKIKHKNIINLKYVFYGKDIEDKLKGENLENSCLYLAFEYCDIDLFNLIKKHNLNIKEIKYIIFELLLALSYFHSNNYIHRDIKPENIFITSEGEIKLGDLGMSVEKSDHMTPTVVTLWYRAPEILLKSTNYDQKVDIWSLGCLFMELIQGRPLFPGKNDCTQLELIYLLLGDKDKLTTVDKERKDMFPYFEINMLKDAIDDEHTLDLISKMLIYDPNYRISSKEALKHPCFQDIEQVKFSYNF

[8] = HEPG2, ref downloaded from ChEMBL
[9] = downloaded from ChEMBL, ref F.J. Gamo et al., Nature 2010
[10] = HepG2, downloaded from ChEMBL, ref F.J. Gamo et al., Nature 2010

Chain of PKG (Q8I719 whole entry): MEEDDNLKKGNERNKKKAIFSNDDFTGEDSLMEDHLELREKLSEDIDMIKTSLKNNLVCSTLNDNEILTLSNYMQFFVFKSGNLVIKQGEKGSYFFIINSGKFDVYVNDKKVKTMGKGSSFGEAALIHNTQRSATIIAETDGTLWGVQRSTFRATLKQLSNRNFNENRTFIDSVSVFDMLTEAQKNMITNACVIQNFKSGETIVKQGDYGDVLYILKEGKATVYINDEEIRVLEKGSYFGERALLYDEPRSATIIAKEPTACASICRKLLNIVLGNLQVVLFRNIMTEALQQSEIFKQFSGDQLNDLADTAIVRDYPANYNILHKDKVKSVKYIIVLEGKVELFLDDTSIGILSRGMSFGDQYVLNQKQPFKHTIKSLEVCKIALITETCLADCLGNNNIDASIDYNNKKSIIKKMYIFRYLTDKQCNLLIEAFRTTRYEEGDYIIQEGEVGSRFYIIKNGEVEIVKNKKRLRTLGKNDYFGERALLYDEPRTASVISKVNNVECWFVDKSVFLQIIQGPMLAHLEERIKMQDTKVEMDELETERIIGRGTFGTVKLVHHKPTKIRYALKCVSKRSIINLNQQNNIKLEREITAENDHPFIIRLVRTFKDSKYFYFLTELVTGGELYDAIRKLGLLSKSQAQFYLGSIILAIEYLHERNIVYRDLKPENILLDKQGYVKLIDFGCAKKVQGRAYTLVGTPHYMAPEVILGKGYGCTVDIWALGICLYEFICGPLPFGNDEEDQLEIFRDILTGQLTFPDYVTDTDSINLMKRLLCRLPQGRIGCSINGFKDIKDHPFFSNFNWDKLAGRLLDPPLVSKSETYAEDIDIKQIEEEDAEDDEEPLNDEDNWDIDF

Compound	IC50 (PKG) [nM]	PCT_IHB_3D7 (P. falciparum 3D7 cells; ref downloaded from ChEMBL)	pXC50_3D7 (P. falciparum 3D7 cells; ref downloaded from ChEMBL)	IC50 [1] [nM]	PCT_INHIB_3D7_PFLDH (3D7 PFLDH [2])	PCT_INHIB_HEPG2 (HepG2 cells; [8])	PCT_INHB_DD2 (DD2 [3])	IC50 [4] [nM]	PCT_IHB_3D7 (P. falciparum 3D7 cells; [9]) [%]	pXC50_3D7 (P. falciparum 3D7 cells; [9])	PCT_INHIB_3D7_PFLDH (3D7 PFLDH [5]) [%]	PCT_INHB_DD2 (DD2 [6]) [%]	PCT_INHIB_HEPG2 (HepG2 cells; [10]) [%]	IC50 [7] [nM]
O=C(NC1CC1)c1ccc(Nc2nccc(-c3c(-c4cccc(NC(=O)c5c(F)cccc5F)c4)nn4ccccc34)n2)cc1 [TCMDC-136002]	> 10000	94	6.386	26	0	84	96							
NS(=O)(=O)CCc1cccc(Nc2nccc(-c3c(-c4cccc(NC(=O)c5c(F)cccc5F)c4)nn4ccccc34)n2)c1 [TCMDC-135791]	> 10000	98	7.234	20	3	84	97	29						
NCCCNc1nc(Nc2cccc(C(N)=O)c2)c2c(=O)[nH]ccc2n1.O=C(O)C(F)(F)F [TCMDC-135053]	7330			750				967	99	6.226	0	49	9	
Cc1cccc(Nc2nc(NCCCCN)nc3cc[nH]c(=O)c23)c1.O=C(O)C(F)(F)F [TCMDC-134946]	1580			566				166	98	6.135	0	97	34	
CCn1c(-c2nonc2N)nc2c(-c3cccc(NC(=O)Nc4ccc(C(F)(F)F)cc4)c3)ncc(OCCCN)c21.O=C(O)C(F)(F)F [TCMDC-136179]	264			959				30	94	5.981	6	63	36	
CCn1c(-c2nonc2N)nc2c(-c3cccc(NC(=O)Nc4ccc5c(c4)CCC5)c3)ncc(OCCCN)c21.O=C(O)C(F)(F)F [TCMDC-136191]	5050			85				59	99	6.106	0	94	26	
O=C(O)C(F)(F)F.O=c1[nH]ccc2nc(N[C@@H]3CCNC3)nc(Nc3cc(Cl)cc(Cl)c3)c12 [TCMDC-135052]	486			33				446	100	6.132	0	99	99	
CCn1c(-c2nonc2N)nc2c(-c3cc4ccccc4s3)ncc(C(=O)N3CCC(N)C3)c21.O=C(O)C(F)(F)F (stereo not drawn) [TCMDC-135281]	6940							89	98	6.06	5	66	99	
CCn1c(-c2nonc2N)nc2c(-c3cccc(NC(=O)Nc4ccc(C#N)cc4)c3)ncc(OCCCN)c21.O=C(O)C(F)(F)F [TCMDC-136194]	595			235				84	85	5.821	0	80	1	
CCn1c(-c2nonc2N)nc2c(-c3cccc(NC(=O)NC45CC6CC(CC(C6)C4)C5)c3)ncc(OCCCN)c21.O=C(O)C(F)(F)F [TCMDC-136246]	89			84				158	94		0	63	100	
CNC(=O)c1ccccc1Nc1nc(Nc2ccc(CCN3CCN(C)CC3)cc2)ncc1Cl.Cl [TCMDC-133800]	881			47				361	97	6.1864	5	98	76	70
CCn1c(-c2nonc2N)nc2c(-c3cccc(Cl)c3)ncc(OCCCNCCc3c[nH]cn3)c21.O=C(O)C(F)(F)F [TCMDC-135919]	2210			138				46	100	6.007	0	98	16	
Cc1cccc(Nc2nc(N[C@@H]3CCCNC3)nc3cc[nH]c(=O)c23)c1.O=C(O)C(F)(F)F [TCMDC-134835]	422			23				76	99	6.166	1	98	55	
CCn1c(-c2nonc2N)nc2c(-c3cccc(NC(=O)Nc4cccc(C#N)c4)c3)ncc(OCCCN)c21.O=C(O)C(F)(F)F [TCMDC-136195]	158			182				170	92	6.1747	0	80	37	
CCn1c(-c2nonc2N)nc2c(-c3ccccc3)ncc(OCCCNCCCN3CCOCC3)c21.O=C(O)C(F)(F)F [TCMDC-135858]	126			42				38	100	6.174	0	91	28	
CCn1c(-c2nonc2N)nc2c(-c3cccc(Cl)c3)ncc(OCCCNCc3cnc(C)nc3N)c21.O=C(O)C(F)(F)F [TCMDC-135956]	9210			271				145	93	5.996	3	48	21	
CCn1c(-c2nonc2N)nc2c(-c3cccc(NC(=O)Nc4cccc(Cl)c4)c3)ncc(OCCCN)c21.O=C(O)C(F)(F)F [TCMDC-136193]	926			379				81	91	6.027	0	78	9	
NS(=O)(=O)c1cccc(Nc2nc(N[C@@H]3CCNC3)nc3cc[nH]c(=O)c23)c1.O=C(O)C(F)(F)F [TCMDC-135057]	1850			83				135	99	6.027	0	98	7	
CCn1c(-c2nonc2N)nc2c(-c3ccccc3)ncc(OCCCCNCCc3ncc[nH]3)c21.O=C(O)C(F)(F)F [TCMDC-136000]	953			94				43	92	6.07	0	42	34	

— article PMC4774911, “Biochemical Screening of Five Protein Kinases from Plasmodium falciparum against 14,000 Cell-Active Compounds” (PLoS ONE, 2016)
